US20230087766A1, “METHODS OF REACTIVATING LATENT HUMAN IMMUNODEFICIENCY VIRUS AND RELATED COMPOSITIONS” (priority 2017, published 2023)

Experiments:
Type in all cases: cell-based
[1] = test system: latent HIV (HIV LTR-driven transcription) in J-Lat A1 cells; settings: for reactivation of latent HIV by epigenetic modifiers: 30 mM Na-Cro, 500 nM SAHA, 2 μM GSK343 or 5 μM AZA-dc; for reactivation of latent HIV by epigenetic modifiers / increase in reactivation of latent HIV in combination with Na-Cro as compared to single treatment: RT-qPCR; for increase in reactivation of latent HIV in combination with Na-Cro as compared to single treatment: J-Lat A1 cells pretreated with Na-Cro, then the LRA added
Method: (§1) Cell culture: J-Lat Al cells (derived from Jurkat cells harboring HIV LTR-Tat-GFP gene) and U1 cells (promonocytic cell line harboring one copy of HIV genome with defective tat gene) were obtained from NIH AIDS Reagent Program and cultured at 37° C. with 5% CO2 in RPM11640 medium containing 10% FBS and 1% penicillin-streptomycin as previously described (see G. Jiang, et al. PLoS Pathogens 11, e1005066 (2015)).
(§2) For inhibiting ACSS2 and crotonylation, cells were pretreated with ACSS2 inhibitor, AR12 (SELLECK CHEMICALS™, Houston, Tex.), for 30 minutes, followed by Na-Cro treatment for 4 or 18 hours.
(§3) Real-Time PCR Analysis: HIV gene expression was measured using real-time PCR in J-Lat Al cells treated with LRAs. Total nucleic acid was extracted using RNEASY™ Kit, genomic DNA digested using DNase I and total RNA reverse transcribed using Superscript III to synthesize cDNA. […] […] TAMRA-3′ (SEQ ID NO:3).

[2] = test system: HIV LTR in J-Lat A1 cells; test: Chromatin immunoprecipitation (ChIP) at the HIV LTR; settings: pretreatment with AR12, then Na-Cro
Text: FIG. 2 is a series of images and graphs showing that histone crotonylation by sodium crotonate addition re-programs histone tails at the HIV LTR. Panel A illustrates that Na-Cro addition increased global expression of H3K4Cro, H3K4Ac, and H3K18Ac while decreasing H3K27Me3. Panel B illustrates expression of transcription factors after Na-Cro addition in J-Lat Al cells. Panels C-E illustrate that Na-Cro addition re-programmed histone tails at the HIV LTR. Chromatin immunoprecipitation (ChIP) assay was performed by using anti-H3K4Cr, anti-H3K4Ac, and anti-H3K27Me3 antibodies after J-Lat Al cells were treated with 30 mM Na-Cro for 4 hours. PCR primers were specific for the HIV LTR region.
(§4) FIG. 7 is a series of graphs showing that induction of de-crotonylation of histone tail at HIV LTR is independent of SIRTs. Panel A illustrates that J-Lat Al cells were pre-treated with either 50 μM RSV or 1 mM NAM, followed by 30 mM Na-Cro addition to reactivate latent HIV expression. Untreated controls were compared with positive controls involving individual treatment of Na-Cro, RSV, or NAM. *, p<0.05; **, p<0.01 compared with control treatment. #, p<0.05 compared with Na-Cro treatment. Panel B illustrates that gene expression of sirt1 or sirt3 was measured by RT-qPCR in J-Lat Al cells treated with either 25 μM RSV, 50 μM RSV, or 1 mM NAM. *, p<0.05 and **, p<0.01 compared with control treatment. Panels C and D illustrate that histone crotonylation induces binding of SIRT3 and SIRT1 at the HIV LTR. J-Lat Al cells were treated with 30 mM Na-Cro for 4 hours and analyzed by ChIP assays using anti-SIRT1 or anti-SIRT3 antibodies. *, p<0.05 compared with control treatment.
Chromatin Immunoprecipitation (ChIP): J-Lat Al cells (2.5 to 5 million) were utilized in ChIP assays with anti-H3K18Ac, anti-H3K4Cr, anti-H3K27Me3, anti-H3K4Ac, anti-SIRT3 (CELL SIGNALING TECHNOLOGY®), and anti-SIRT1 (CELL SIGNALING TECHNOLOGY®) antibodies. ChIP assays were performed using […]® Kit from CELL SIGNALING TECHNOLOGY® as per the manufacturer's recommendations. Samples were cross-linked using formaldehyde and 150-1000 bp fragments were made using Micrococcal Nuclease digestion and 7 cycles of 30 seconds on/30 seconds off sonication. Antibodies were used to probe respective proteins. Purification of DNA was performed using the […]® Kit Protocol. Purified ChIP DNA was used in SYBR® Green qPCR using ChIP primers specific for HIV LTR.

[3] = test system: latent HIV in primary CD4+ T cells from HIV-infected patients under suppressive ART; test: HIV transcription by ddPCR in primary CD4+ T cells from HIV-infected patients; settings: 6 hours
Method: Panels A-C illustrate that primary CD4+ T cells were treated with […] PMA 2 plus 2 μg/ml ionomycin, 12 nM PEP005, 40 mM Na-Cro, or 12 nM PEP005 combined with 40 mM Na-Cro for 6 hours. Viral transcription from total RNA was analyzed by RT-ddPCR with primers targeting initiation (TAR region) (see panel A), elongation (long LTR) (see panel B), or full transcription (poly A region) (see panel C) of the HIV genome. Panel D illustrates a working model of epigenetic regulation of HIV latency/transcription by histone crotonylation.
To validate this finding in the ex vivo primary CD4+ T cells from patients the peripheral blood samples from 6 HIV-infected patients under suppressive ART were obtained. They had undetectable plasma viral load (<20 copies/ml plasma) and >400 CD4+ T cell number per […] (see Table 1). Primary CD4+ T cells were treated with PMA/Ionomycin, PEP005, Na-Cro, or PEP005 in combination with Na-Cro for 6 hours. HIV transcription following reactivation was measured by digital droplet PCR (ddPCR) targeting TAR region (initiation), long LTR region (elongation), or Poly A region (full transcription) of HIV genome (see G. Jiang, et al. PLoS pathogens 11, e1005066 (2015); P. Kaiser, et al. Journal of virological methods 242, 1-8 (2017); and L. Shan, et al. Journal of Virology 87, 6521-6525 (2013)).
Primary CD4+ T Cell Isolation, Treatment, and Digital Droplet PCR Assays: Peripheral blood samples were obtained from HIV-infected individuals (age ranging from 46-62 years old) on suppressive ART for >8 years (n=6). The plasma viral loads were below the detective level (<20 copies/ml plasma) and the average CD4+ T cell number was 664.4±180.5 cells/ml. The primary CD4+ T cells were isolated using the EASYSEP™ kit ([…]™ Technologies Inc., Vancouver, BC, Canada) as previously described (see G. Jiang, et al. PLoS pathogens 11, el 005066 (2015) and G. Jiang, et al. AIDS 28, 1555-1566 (2014)). The purified CD4+ T cells were plated at a density of 0.5-1×10^6 cells and treated with Control, 200 ng/ml PMA plus 2 μM lonomycin, 12 nM PEP005, 40 mM Na-Cro, or 12 nM PEP005 plus 40 mM Na-Cro for 6 hours. Cell pellets were collected for RNA isolation. Initiation, elongation, or full transcription of HIV was analyzed with ddPCR assays as reported before (see G. Jiang, et al. PLoS pathogens 11, e1005066 (2015); P. Kaiser, et al. Journal of virological methods 242, 1-8 (2017); and L. Shan, et al. Journal of virology 87, 6521-6525 (2013)).

[4] = test system: sirt3; test: sirt3 gene expression by RT-qPCR in J-Lat A1 cells; settings: 25 μM or 50 μM RSV
Method: as §4

[5] = test system: latent HIV in resting CD4+ T cells from HIV-infected individuals under ART; test: Quantitative Viral Outgrowth Assay (QVOA), p24 ELISA; settings: resting CD4+ T cells from 5 HIV-infected individuals under ART; ex vivo
Method: It was tested whether the histone crotonylation inducer, sodium crotonate, can reactivate latent HIV reservoirs from a patient under ART. Peripheral blood samples were obtained from 5 HIV-infected individuals with undetectable plasma viral loads and higher CD4+ T cell numbers (see Table 1). One million resting CD4+ T cells were treated with IL-2, PHA+IL-2, or IL-2+Na-Cro, and HIV p24 production was measured by QVOA using p24 ELISA as a measure of HIV reactivation.
Quantitative Viral Outgrowth Assay: Peripheral blood mononuclear cells (PBMC) were obtained from HIV-infected individuals on suppressive ART (n=5) by continuous-flow leukopheresis. Isolation of resting CD4+ T cells and quantification of replication competent virus was performed as previously described (see S. Dandekar, et al. Current HIV/AIDS reports 4, 10-15 (2007)). […] Cultures were scored as positive if p24 was detected at day 15 and was increased in concentration at day 19. […]

[6] = test system: latent HIV in U1 cells; test: Reactivation of latent HIV in U1 cells by RT-qPCR
Method: as §1, §2, §3

[7] = primary CD4+ T cells of 6 patients, 40 mM Na-Cro or 12 nM PEP005, ddPCR

NCC(=O)Nc1ccc(-n2nc(C(F)(F)F)cc2-c2ccc3c(ccc4ccccc43)c2)cc1 [AR12, reference compound]
decrease in latent HIV reactivation by Na-Cro ([1]; pretreatment with AR12 for 30 minutes, then Na-Cro): > 60%
histone crotonylation at HIV LTR [2]: markedly dampened

Nc1ncn([C@H]2C[C@H](O)[C@@H](CO)O2)c(=O)n1 [AZA-dC]
reactivation of latent HIV by epigenetic modifiers ([1]; J-Lat A1 cells): minimally reactivated latent HIV

CCCc1cc(C)[nH]c(=O)c1CNC(=O)c1cc(-c2ccnc(N3CCN(C)CC3)c2)cc2c1cnn2C(C)C [GSK343]
synergistic effect on HIV reactivation in combination with Na-Cro ([1]; J-Lat A1 cells): did not show any synergistic effect
reactivation of latent HIV by epigenetic modifiers ([1]; J-Lat A1 cells): minimally reactivated latent HIV

Cc1sc2c(c1C)C(c1ccc(Cl)cc1)=N[C@@H](CC(=O)OC(C)(C)C)c1nnc(C)n1-2 [JQ1]
increase in reactivation of latent HIV in combination with Na-Cro as compared to single treatment [1]: 1.8 fold

NC(=O)c1cccnc1 [NAM, nicotinamide]
viral reactivation after pretreatment ([1]; J-Lat A1 cells, 1 mM NAM pretreatment then 30 mM Na-Cro): less than 4 fold

C/C=C(/C)C(=O)O[C@H]1C(C)=C[C@]23C(=O)[C@@H](C=C(CO)[C@@H](O)[C@]12O)[C@H]1[C@@H](C[C@H]3C)C1(C)C [PEP005, ingenol-3-angelate]
increase in reactivation of latent HIV in combination with Na-Cro as compared to single treatment [1]: 8 fold
elongation of HIV transcripts (long LTR), patients responding [3, 7]: 5 of 6 patient samples
full-length transcription of HIV (poly A region), patients responding [3, 7]: 5 of 6 patient samples
initiation of HIV transcription (TAR region), patients responding [3, 7]: all six patients
reactivation of latent HIV, combination of Na-Cro with PEP005 ([3]; primary CD4+ T cells, 12 nM PEP005 combined with 40 mM Na-Cro, also higher than PMA/Ionomycin): greater reactivation of latent HIV than either agent alone

Oc1ccc(C=Cc2cc(O)cc(O)c2)cc1 [RSV, Resveratrol]
crotonyl-CoA-mediated latent HIV reactivation after pretreatment ([1]; J-Lat A1 cells, 50 μM RSV pretreatment then 30 mM Na-Cro, compared to crotonyl-CoA alone): 27 fold
increase in expression of sirt3 [4]: two to three

O=C(CCCCCCC(=O)Nc1ccccc1)NO [SAHA, suberoylanilide hydroxamic acid]
replication-competent HIV recovered (HIV reactivation, QVOA) [5]: able to flush out the latent HIV in these patient cells except for one patient
increase in reactivation of latent HIV in combination with Na-Cro as compared to single treatment [1]: 2.0 fold
HIV reactivation, pretreatment with SAHA followed by Na-Cro addition ([1]; J-Lat A1 cells, 250 nM SAHA then 40 mM Na-Cro overnight): abolished the combination effect
reactivation of latent HIV by epigenetic modifiers ([1]; J-Lat A1 cells): comparable capacity to reactivate latent HIV
HIV reactivation, pretreatment with SAHA followed by Na-Cro addition ([6]; 500 nM SAHA then 40 mM Na-Cro): abolished the combination effect
HIV reactivation, pretreatment with Na-Cro then SAHA, compared with SAHA alone ([6]; 40 mM Na-Cro then 500 nM SAHA, overnight, real-time PCR): enhanced SAHA-reactivation of latent HIV

CCC/C=C/C=C/C(=O)O[C@H]1/C(=C/C(=O)OC)C[C@H]2C[C@H]([C@@H](C)O)OC(=O)C[C@H](O)C[C@@H]3C[C@H](OC(C)=O)C(C)(C)[C@](O)(C[C@@H]4C/C(=C/C(=O)OC)C[C@H](/C=C/C(C)(C)[C@]1(O)O2)O4)O3 [bryostatin-1]
increase in reactivation of latent HIV in combination with Na-Cro as compared to single treatment [1]: 3.3 fold
